Literature values in US10640746B2, “Synthetic methylotrophs” (UNIVERSITY OF DELAWARE, priority 2016, dated 2020).

Legend:
Conditions in all cases: in vitro
[1] = tested on: Bacillus methanolicus MGA3 (Bme) methanol dehydrogenase 3 (Bme Mdh3, BmMdh3)
[2] = tested on: Corynebacterium glutamicum R (Cgl R) alcohol dehydrogenase A (Cgl AdhA, CgAdhA; GenBank BAF55711.1; SEQ ID NO: 1)
[3] = tested on: Bacillus stearothermophilus 2334 (Bst) methanol dehydrogenase (Bst Mdh, BsMdh)

| SMILES | Vmax [1] | Km [2] | Vmax [2] | Km [3] | Vmax [3] |
| --- | --- | --- | --- | --- | --- |
| CCO [EtOH, ethanol] | 2 µmol/min/mg | 6.8 mM | 7.8 µmol/min/mg | 0.08 mM | – |
| CO [MeOH, methanol] | 0.07 µmol/min/mg | 3 mM | 0.7 µmol/min/mg | 20 mM | 2.1 µmol/min/mg |
| CCCCO [n-BuOH, n-butanol] | 2.3 µmol/min/mg | 35 mM | 8.9 µmol/min/mg | 0.01 mM | – |
| CCCO [n-PrOH, propanol] | 3.5 µmol/min/mg | 7.5 mM | 7.7 µmol/min/mg | 0.02 mM | – |
